{"source": "patent US8840932B2", "about": "“Antiseptic compositions and methods” (priority 2002, dated 2014)", "origin": "cited, not measured here", "conditions": "25° C.", "data": [{"smiles": "II", "note": "[elemental iodine, iodine]", "values": [{"measurement": "solubility in water", "value": 0.03, "unit": "wt-%"}]}]}
